According to patent US20240041042A1, “1-(PYRIDYL)-5-AZINYLPYRAZOLE DERIVATIVES, AND THEIR USE FOR CONTROL OF UNDESIRED PLANT GROWTH” (Bayer Aktiengesellschaft, priority 2020, published 2024):
Like-named read-outs stand apart in the source and are kept apart here.

Experiments:
Assay type in all cases: in vivo
[1] = system: Alopecurus myosuroides (ALOMY); assay: Pre-emergence herbicidal action against ALOMY; conditions: scored visually after about 3 weeks, 100% = plants have died
Outline: (§1)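 Application rates ran to 320 g/ha or lower, with several dosages tested on the same weeds. The compound, as wettable powder or emulsion concentrate, is sprayed pre-emergence onto soil over sown seeds; greenhouse growth follows, and effect is rated visually after roughly 3 weeks.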

[2] = system: Amaranthus retroflexus (AMARE); assay: Pre-emergence herbicidal action against AMARE; conditions: visual scoring after about 3 weeks vs untreated controls
Outline: as §1

[3] = system: Avena fatua (AVEFA); assay: Pre-emergence herbicidal action against AVEFA; conditions: visual scoring after about 3 weeks vs untreated controls
Outline: as §1

[4] = system: Echinochloa crus-galli (ECHCG); assay: Pre-emergence herbicidal action against ECHCG
Outline: as §1

[5] = system: Lolium rigidum (LOLRI); assay: Pre-emergence herbicidal action against LOLRI; conditions: dosage 320 g/ha
Outline: as §1

[6] = system: Matricaria inodora (MATIN); assay: Pre-emergence herbicidal action against MATIN
Outline: as §1

[7] = system: Pharbitis purpurea (PHBPU); assay: Pre-emergence herbicidal action against PHBPU; conditions: dosage 320 g/ha
Outline: as §1

[8] = system: Polygonum convolvulus (POLCO); assay: Pre-emergence herbicidal action against POLCO; conditions: dosage 320 g/ha
Outline: as §1

[9] = system: Setaria viridis (SETVI); assay: Pre-emergence herbicidal action against SETVI
Outline: as §1

[10] = system: Verconica persica (VERPE); assay: Pre-emergence herbicidal action against VERPE; conditions: dosage 320 g/ha
Outline: as §1

[11] = system: Viola tricolor (VIOTR); assay: Pre-emergence herbicidal action against VIOTR
Outline: as §1

[12] = system: Abutilon theophrasti (ABUTH); assay: Post-emergence herbicidal action against ABUTH; conditions: visual rating about 3 weeks after treatment vs untreated controls (100% = plants have died, 0% = like control plants)
Outline: (§2)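 Greenhouse plants sprayed at the one-leaf stage, 2–3 weeks after sowing, with WP or EC formulations plus 0.5% additive at 600 l/ha water. Activity rated visually after about 3 weeks versus untreated controls (100% = dead, 0% = like control), at 320 g/ha or lower.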

[13] = system: Alopecurus myosuroides (ALOMY); assay: Post-emergence herbicidal action against ALOMY; conditions: visual rating about 3 weeks after treatment vs untreated controls (100% = plants have died, 0% = like control plants)
Outline: as §2

[14] = system: Amaranthus retroflexus (AMARE); assay: Post-emergence herbicidal action against AMARE
Outline: as §2

[15] = system: Avena fatua (AVEFA); assay: Post-emergence herbicidal action against AVEFA; conditions: visual rating about 3 weeks after treatment
Outline: as §2

[16] = system: Echinochloa crus-galli (ECHCG); assay: Post-emergence herbicidal action against ECHCG
Outline: as §2

[17] = system: Lolium rigidum (LOLRI); assay: Post-emergence herbicidal action against LOLRI
Outline: as §2

[18] = system: Matricaria inodora (MATIN); assay: Post-emergence herbicidal action against MATIN
Outline: as §2

[19] = system: Pharbitis purpurea (PHBPU); assay: Post-emergence herbicidal action against PHBPU
Outline: as §2

[20] = system: Polygonum convolvulus (POLCO); assay: Post-emergence herbicidal action against POLCO
Outline: as §2

[21] = system: Setaria viridis (SETVI); assay: Post-emergence herbicidal action against SETVI
Outline: as §2

[22] = system: Verconica persica (VERPE); assay: Post-emergence herbicidal action against VERPE
Outline: as §2

[23] = system: Viola tricolor (VIOTR); assay: Post-emergence herbicidal action against VIOTR
Outline: as §2

[24] = system: Digitaria sanguinalis (DIGSA); assay: Post-emergence herbicidal action against DIGSA; conditions: visual rating about 3 weeks after treatment
Method: Seeds of monocotyledonous and dicotyledonous weeds and crop plants are placed in sandy loam in plastic or organic planting pots, covered with soil and cultivated in a greenhouse under controlled growth conditions. 2 to 3 weeks after sowing, the test plants are treated at the one-leaf stage. The compounds of the invention, formulated in the form of wettable powders (WP) or as emulsion concentrates (EC), are then sprayed onto the green parts of the plants as aqueous suspension or emulsion with addition of 0.5% additive at a water application rate of 600 l/ha (converted). After the test plants have been kept in the greenhouse under optimum growth conditions for about 3 weeks, the activity of the preparations is rated visually in comparison to untreated controls. For example, 100% activity=the plants have died, 0% activity=like control plants.
Tables B1 to B13 below show the effects of selected compounds of the general formula (I) according to Table 1 on various harmful plants and at an application rate corresponding to 320 g/ha or lower, which were obtained by the experimental procedure mentioned above. The appendices “a”, “b” and “c” give differentiation by dosage used with otherwise the same harmful plants tested.

[25] = system: Oryza sativa (ORYSA); conditions: crop plant compatibility
Outline: (§3)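 One-leaf-stage crops (2–3 wk post-sowing, sandy loam, greenhouse) sprayed on green parts; 0.5% additive, 600 l/ha water. Rated by eye ~3 wk later, % vs untreated; suffixes a/b/c mark different dosages.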

[26] = system: Zea mays (ZEAMX); conditions: for Post-emergence action against ZEAMX in % (crop plant compatibility): 20 g/ha, effect in comparison to untreated controls
Outline: as §3

[27] = 80 g/ha, visual rating about 3 weeks after treatment vs untreated controls (100% = plants have died, 0% = like control plants)
[28] = 320 g/ha, visual rating about 3 weeks after treatment
[29] = 20 g/ha, effect vs untreated controls
[30] = 80 g/ha, effect in comparison to untreated controls

Post-emergence action against ORYSA in % [25, 29] [%]	Structure (SMILES)	Pre-emergence action against ALOMY ([1]; 80 g/ha) [%]	Pre-emergence action against ALOMY ([1]; 320 g/ha) [%]	Pre-emergence action against AMARE in % ([2]; 80 g/ha) [%]	Pre-emergence action against AMARE in % ([2]; 320 g/ha) [%]	Post-emergence action against ALOMY in % ([13]; 80 g/ha) [%]	Post-emergence action against ALOMY in % ([13]; 320 g/ha) [%]	Post-emergence action against AVEFA in % ([15]; 80 g/ha) [%]	Post-emergence action against AVEFA in % ([15]; 320 g/ha) [%]	Post-emergence action against ECHCG in % ([16]; dosage 80 g/ha) [%]	Post-emergence action against ECHCG in % ([16]; dosage 320 g/ha) [%]	Post-emergence action against LOLRI in % ([17]; dosage 80 g/ha) [%]	Post-emergence action against LOLRI in % ([17]; dosage 320 g/ha) [%]	Post-emergence action against PHBPU in % ([19]; dosage 320 g/ha) [%]	Post-emergence action against POLCO in % ([20]; dosage 320 g/ha) [%]	Post-emergence action against SETVI in % ([21]; dosage 80 g/ha) [%]	Post-emergence action against SETVI in % ([21]; dosage 320 g/ha) [%]	Post-emergence action against VERPE in % ([22]; 320 g/ha, VERPE) [%]	Post-emergence action against VERPE in % ([22]; dosage 80 g/ha) [%]	Post-emergence action against VIOTR in % ([23]; 320 g/ha) [%]	other results
	COC(=O)COc1nn(-c2ncccc2F)c(-c2ccc(F)nc2)c1C1CC1 [Example I-42]	100	100	90	100	100	100	100	100	90	90	100	100	90	90	90	90	90	90	90	Pre-emergence action against AVEFA in % ([3]; 320 g/ha): 100%; Pre-emergence action against ECHCG in % ([4]; dosage 80 g/ha): 100%; Pre-emergence action against ECHCG in % ([4]; dosage 320 g/ha): 100%; Pre-emergence action against LOLRI in % [5]: 100%; Pre-emergence action against MATIN in % ([6]; dosage 320 g/ha): 100%; Pre-emergence action against PHBPU in % [7]: 90%; Pre-emergence action against POLCO in % [8]: 90%; Pre-emergence action against SETVI in % ([9]; dosage 80 g/ha): 100%; Pre-emergence action against SETVI in % ([9]; dosage 320 g/ha): 100%; Pre-emergence action against VERPE in % [10]: 100%; Pre-emergence action against VIOTR in % ([11]; 320 g/ha, Viola tricolor): 100%; Pre-emergence action against VIOTR in % ([11]; dosage 80 g/ha): 100%; Post-emergence action against ABUTH in % ([12]; 80 g/ha): 90%; Post-emergence action against ABUTH in % ([12]; 320 g/ha): 90%; Post-emergence action against AMARE in % [14, 27]: 90%; Post-emergence action against AMARE in % [14, 28]: 90%; Post-emergence action against MATIN in % ([18]; dosage 80 g/ha): 80%; Post-emergence action against MATIN in % ([18]; dosage 320 g/ha): 90%; Post-emergence action against POLCO in % ([20]; dosage 80 g/ha): 80%; Post-emergence action against VIOTR in % ([23]; 80 g/ha): 90%
0	COC(=O)C(C)OC(=O)C(C)Oc1nn(-c2ccccn2)c(-c2ccc(F)nc2)c1Br (stereo not shown) [Example I-288]						90	80	90		80	80	80	90	80	90	90	80	80	80	Post-emergence action against DIGSA in % ([24]; 80 g/ha): 80%; Post-emergence action against DIGSA in % ([24]; 320 g/ha): 90%; Post-emergence action against PHBPU in % ([19]; dosage 80 g/ha): 80%; Post-emergence action against ORYSA in % [25, 30]: 10%
10	COC(=O)C(C)OC(=O)C(C)Oc1nn(-c2ccccn2)c(-c2ccc(F)nc2)c1Cl (stereo not shown) [Example I-299]					80	90	80	80	80	90	80	80	90	80		90	80	80	90	Post-emergence action against AMARE in % [14, 28]: 80%; Post-emergence action against DIGSA in % ([24]; 80 g/ha): 80%; Post-emergence action against DIGSA in % ([24]; 320 g/ha): 90%; Post-emergence action against VIOTR in % ([23]; 80 g/ha): 80%; Post-emergence action against ORYSA in % [25, 30]: 20%; Post-emergence action against ZEAMX in % (crop plant compatibility) [26]: 0%; Post-emergence action against ZEAMX in % ([26]; crop plant compatibility, 80 g/ha, effect vs untreated controls): 10%
0	CCOC(=O)COc1nn(-c2ccccn2)c(-c2ccc(F)nc2)c1Cl [Example I-100]	100	100	90	100	100		100		90		80				80			80		Pre-emergence action against AVEFA in % ([3]; 80 g/ha): 80%; Pre-emergence action against AVEFA in % ([3]; 320 g/ha): 90%; Pre-emergence action against ECHCG in % ([4]; dosage 80 g/ha): 80%; Pre-emergence action against ECHCG in % ([4]; dosage 320 g/ha): 100%; Pre-emergence action against LOLRI in % [5]: 100%; Pre-emergence action against MATIN in % ([6]; dosage 80 g/ha): 80%; Pre-emergence action against MATIN in % ([6]; dosage 320 g/ha): 80%; Pre-emergence action against PHBPU in % [7]: 90%; Pre-emergence action against POLCO in % [8]: 90%; Pre-emergence action against SETVI in % ([9]; dosage 80 g/ha): 90%; Pre-emergence action against SETVI in % ([9]; dosage 320 g/ha): 100%; Pre-emergence action against VERPE in % [10]: 100%; Pre-emergence action against VIOTR in % ([11]; 320 g/ha, Viola tricolor): 90%; Post-emergence action against ABUTH in % ([12]; 80 g/ha): 80%; Post-emergence action against AMARE in % [14, 27]: 90%; Post-emergence action against MATIN in % ([18]; dosage 80 g/ha): 90%; Post-emergence action against PHBPU in % ([19]; dosage 80 g/ha): 90%; Post-emergence action against POLCO in % ([20]; dosage 80 g/ha): 90%; Post-emergence action against ZEAMX in % (crop plant compatibility) [26]: 10%
